These are literature values, as cited in patent US10632442B2, “Apparatus for a mass production of monodisperse biodegradable polymer-based microspheres and a multi-channel forming device incorporatable therein” (INVENTAGE LAB, INC., priority 2016, dated 2020).

The term AUC denotes the area under the concentration-time curve, a measure of exposure. Broadly, the Cmax is the peak of the concentration-time curve. In general, Tmax refers to the time at which the peak concentration occurs.

For the data set the following is noted: in vivo.

With `CO/N=C1\C[C@]2(C[C@@H]3C[C@@H](C/C=C(\C)C[C@@H](C)/C=C/C=C4\CO[C@@H]5[C@H](O)C(C)=C[C@@H](C(=O)O3)[C@]45O)O2)O[C@H](/C(C)=C/C(C)C)[C@H]1C` [Moxidectin], the AUC was 217 ng·days/mL, the Cmax is 5.1 ng/mL, the Tmax was 7 to 10 days and the T½ is 35 days.
